Measurements: patent US7815905B2, “Methods of increasing insulin sensitivity or decreasing insulin secretion by administering corticotropin releasing factor receptor-2 inhibitors” (Research Development Foundation, priority 2006, dated 2010)
“Also recorded” adds a separate entry of the source. Ends that are not written are not given here.

Key:
isolated rat islets = assay: Insulin secretion from isolated rat islets; assay type: cell-based; settings: 10 nM in the presence of 8.4 mM glucose
Procedure: FIG. 4a-b: The effect of CRFR2 antagonist on insulin secretion in isolated rat islets. (a) The effect of astressin2B (Ast2-B) on insulin secretion in response to glucose in isolated rat islets. […] The asterisk indicates a statistically significant difference between results from the control versus Ast2-B. (b) Isolated rat isles were pre-treated with anti-Ucn 3 IgG or control IgG followed by addition of indicated concentration of glucose. Y-axis indicates insulin secretion from the treated islets. The double asterisks indicate a statistically significant difference between the indicated treatments. […]
To assess the effect of CRFR2 antagonism on islet cell function secretion of insulin from isolated rat islets was studied. […] Thus, activation of CRFR2 by endogenous ligands is involved in insulin secretion induced by high levels of glucose.
In order to determine the role of Ucn 3 in glucose induced insulin secretion, isolated rat islets were pretreated with an anti-Ucn 3 IgG prior to glucose treatment.

MIN6 cells = assay: Ucn 3 secretion from MIN6 cells (Ucn 3 RIA); assay type: cell-based, mouse; settings: for Ucn 3 secretion in the presence of 2.8 mM glucose / Ucn 3 release in the presence of 10 mM glucose: 2 h at 37° C.
Description: FIG. 8a-e: Elevation of pancreatic Ucn 3 expression in diabetic rodent models and stimulation of Ucn 3 release from β cells by glucose. (a) Representative agarose gel electrophoresis showing Ucn 3 and S-16 (control) PCR products. (b) Summary of Ucn 3 expression in ob/ob obese mice and the wildtype (WT) littermates. *: p<0.05 vs WT. (c) Ucn 3 mRNA levels in the pancreas of high fat fed rats (HF) and chow fed controls (Ctrl). *: p<0.05 vs Ctrl. (d) Ucn 3 secretion from MIN6 cells in response to various glucose concentrations. (e) Ucn 3 release from MIN6 cells, in response to glucose and/or insulin secretagogues.
Ucn 3 secretion from P cells was studied using a mouse clonal P cell line, MIN6, as a model. For these studies MIN6 cells (Miyazaki et al., 1990) were cultured in DMEM supplemented with 10% fetal bovine serum (FBS), and 114 μm β-mercaptoethanol. To assess Ucn 3 secretion, the cells were seeded in 6-well plates and allowed to recover for 48 hrs. The cells were then washed twice with HEPES-balanced Krebs-Ringer bicarbonate buffer (HKRB) containing 5 mM glucose and 0.2% BSA and were incubated in HKRB with various testing reagents for 2 h at 37° C. The incubation buffer was collected and vacuum-dried for Ucn 3 RIA. Exendin-4 and diazoxide and carbachol were purchased from Phoenix Pharmaceuticals (Belmont, Calif.), and Sigma (St. Louis, Mo.), respectively. […] The effect of glucose on Ucn 3 secretion plateaued at 16.8 mM.

[1] = tested on: insulin signaling in C2C12 myotubes; assay: Phosphorylation studies of insulin signaling in C2C12 myotubes; assay type: cell-based; settings: pretreatment with the PKA inhibitor
Procedure: FIG. 3a-l: Urocortin 2 effects on muscle glucose uptake are mediated by inhibition of insulin signaling. (a-f). Ucn 2 inhibits the insulin-induced Akt and ERK1/2 phosphorylation but not the insulin receptor phosphorylation. Differentiated C2C12 myotubes were pre-incubated with or without Ucn 2 peptide (0.1, 1 or 10 nM) for 1 hour prior to insulin treatment (10 nM, 5 min). Cell lystates were resolved using 4-12% gradient polyacrylamide gels. Gels were electrophorectically transferred to membranes and probed with antibodies specific for the phospho proteins pAkt (Ser 473), pERK1/2 or pIR (Tyr1146). Stimulation of Akt, ERK or insulin receptor (IR) activation was calculated by fold activation of the phosphorylated form normalized to total and compared with the untreated controls (a, d and f, graphs). […] (g-j) Ucn 2 treatment increases the phosphorylation of serine residue 307 and not the tyrosin phosphorylation of IRS-1. Myotube cells, treated with or without PKA inhibitor (H-89), were incubated with insulin and different concentrations of Ucn 2. IRS-1 immunoprecipitated proteins were electrophoresed as before and the immunoblots were probed for phosphorylated tyrosin (g), phosphorylated serine 307 IRS-1 (i) and total IRS-1 (g, i). […] (k) The effect of Ucn 2 on [^3H]2-deoxy-D-glucose uptake in differentiated C2C12 myotubes. Cells were incubated for 2 hours in low glucose, serum free medium and treated with Ucn 2 (0.1, 1 or 10 nM) or without (control) for 30 min prior to insulin administration (10 nM). Glucose uptake was measured 5 min following exposure to [^3H]2-deoxy-D-glucose. Non-specific uptake was measured by incubating muscle tissue with cytochalasin B, which binds to the glucose uptake transporter (GLUT) and inhibits glucose transport into the cell. Specific uptake was calculated by subtracting non specific from total glucose. (l) Schematic representation of the putative cellular mechanisms mediating the effect of Ucn 2 and CRFR2 on the insulin signaling and glucose uptake in skeletal muscle cells. * indicates p<0.05 vs. no treatment. # indicates p<0.05 vs. insulin treatment (b, d, f) or p<0.05 vs. insulin treatment and Ucn 2 (i).
Differentiated C2C12 myotubes were pre-incubated with or without Ucn 2 peptide (0.1, 1 or 10 nM) for 1 hour prior to insulin treatment (10 nM, 5 min). Cells were harvested immediately in 100 μl of sample treatment buffer [STB, 50 mM Tris (pH 6.8), 100 mM dithiothreitol, 2% (wt/vol) sodium dodecyl sulfate, 0.1% (wt/vol) bromphenol blue, and 10% (wt/vol) glycerol]. The samples were boiled for 5 min, proteins were electrophoresed on 4-12% sodium dodecyl sulfate-polyacrylamide gradient gel (Invitrogen Life Technologies), subsequently transferred onto nitrocellulose membranes, and probed with antibodies specific for phosphorylated Akt (Ser 473, Cell Signaling Technology, Inc., Beverly, Mass.), phosphorylated ERK1/2-p42, 44 (Santa Cruz Biotechnology, Inc., Santa Cruz, Calif.), phosphorylated insulin receptor (Tyr 1146, Cell Signaling Technology, Inc.), or phosphorylated IRS1 (Ser 307, Upstate Cell Signaling Solutions, Lake placid, NY). The membranes were washed with phosphate buffer saline containing 0.05% (vol/vol) Tween 20 and incubated with horseradish peroxidase-conjugated anti mouse or rabbit IgG raised in sheep (Amersham Biotech Pharmacia). Immunoreactive proteins were visualized using Super Signal West Pico Chemiluminescent substrate (Pierce, Rockford, Ill.). The relative protein levels were determined using densitometry (Image quant 1.2) by probing the membranes with antibodies directed against total proteins.

[2] = tested on: C57/B6 mice fed with high fat diet; assay: Ucn 3 treatment of high fat diet fed mice; assay type: in vivo, mouse; settings: high fat diet 16 weeks; 30 μg/kg i.p. for 6 days; vs vehicle
Procedure: FIG. 6: The in vivo effect of Ucn 3 on insulin levels and blood glucose in a mouse model of type 2 diabetes. Wild-type mice were fed a high fat diet for 16 weeks to induce hyperglycemia. The mice were then injected for six days with vehicle alone or vehicle plus 30 μg/Kg of Ucn 3. Following treatment serum glucose (left panel) and serum insulin levels (right panel were determined.
To directly assess the in vivo activity of Ucn 3 in this model system C57/B6 mice were fed with high fat diet (45% Kcal) for 16 weeks. The mice were then injected i.p. with either vehicle or mouse Ucn 3 (30 μg/kg) for 6 days. […] These studies confirm the role of Ucn 3 in mediating increased insulin response to high blood sugar.

Exendin-4: a long acting GLP-1 analogue
insulin release from isolated islets (isolated rat islets): significantly stimulated; also recorded: stimulated insulin release | Ucn 3 secretion in the presence of 2.8 mM glucose (MIN6 cells): minimal or moderate | Ucn 3 release in the presence of 10 mM glucose (MIN6 cells): significantly stimulated

C[N+](C)(C)CCOC(N)=O [carbachol]
Ucn 3 secretion in the presence of 2.8 mM glucose (MIN6 cells): minimal or moderate | Ucn 3 release in the presence of 10 mM glucose (MIN6 cells): significantly stimulated

O=S(=O)(NCCNC/C=C/c1ccc(Br)cc1)c1cccc2cnccc12 [H-89]
phosphorylation of IRS-1 on S307 by Ucn 2 [1]: completely blocked

CC1=NS(=O)(=O)c2cc(Cl)ccc2N1 [diazoxide]
glucose-induced Ucn 3 secretion (MIN6 cells; pretreatment, 100 μM): effectively blocked

Ucn 3: Urocortin 3, CRF family member acting as CRFR2 agonist; mouse Ucn 3 (SEQ ID NO:3) (FTLSLDVPTNIMNILFNIDKAKNLRAKAAANAQLMAQI; ends and bridges not checked; listed as Mus musculus)
glucose levels [2]: significantly lower glucose levels | insulin levels [2]: higher insulin levels compared to the control, though the difference was not statistically significant
